Data from PubChem BioAssay (NCI).
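48-hour exposure; five concentrations; linearly interpolated endpoints. GI50 = concentration required for 50% inhibition of growth. TGI: concentration producing complete growth inhibition.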

How the values were obtained:
Assay in all cases: NCI-60 cell line screen, 48 h
[1] = system: MDA-MB-231 breast
[2] = system: HCC-2998 colon
[3] = system: CCRF-CEM leukemia
[4] = system: NCI-H522 lung
[5] = system: IGROV1 ovarian
[6] = system: EKVX NSCLC
[7] = system: RPMI-8226 leukemia
[8] = system: MOLT-4 leukemia
[9] = system: UO-31 renal
[10] = system: T-47D breast
[11] = system: NCI-H226 lung
[12] = system: NCI-H23 lung
[13] = system: SK-OV-3 ovarian
[14] = system: BT-549 breast
[15] = system: SNB-19 CNS
[16] = system: A498 renal
[17] = system: ACHN renal
[18] = system: HCT-15 colon
[19] = system: HCT-116 colon
[20] = system: U251 CNS
[21] = system: SK-MEL-5 melanoma
[22] = system: SF-295 CNS
[23] = system: OVCAR-5 ovarian
[24] = system: A549 NSCLC
[25] = system: SR leukemia
[26] = system: TK-10 renal
[27] = system: MDA-MB-435
[28] = system: CAKI-1 renal
[29] = system: HS 578T breast
[30] = system: SK-MEL-2 melanoma
[31] = system: OVCAR-4 ovarian
[32] = system: RXF 393 renal
[33] = system: K-562 leukemia
[34] = system: LOX IMVI melanoma
[35] = system: MCF7 breast
[36] = system: NCI/ADR-RES ovarian
[37] = system: OVCAR-8 ovarian
[38] = system: HOP-62 NSCLC
[39] = system: KM12 colon
[40] = system: HOP-92 NSCLC
[41] = system: OVCAR-3 ovarian
[42] = system: M14 melanoma
[43] = system: NCI-H460 lung
[44] = system: HT29 colon
[45] = system: SNB-75 CNS
[46] = system: HL-60(TB) leukemia
[47] = system: PC-3 prostate
[48] = system: COLO 205 colon
[49] = system: SF-539 CNS
[50] = system: SF-268 CNS
[51] = system: SN12C renal
[52] = system: UACC-257 melanoma
[53] = system: DU-145 prostate
[54] = system: UACC-62 melanoma
[55] = system: 786-0 renal

## N#C/C(=C\c1ccc(-c2ccc(Cl)cc2)o1)C(=O)Nc1ncc(Cc2ccc(Cl)cc2)s1
[1]
  GI50: 1.64 µM
  TGI: 4.4 µM
[2]
  GI50: 3.63 µM
  TGI: > 100 µM
[3]
  GI50: 2.21 µM
  TGI: > 100 µM
[4]
  GI50: 1.94 µM
  TGI: 4.86 µM
[5]
  GI50: 2.2 µM
  TGI: 5.99 µM
[6]
  GI50: 2 µM
  TGI: 5.16 µM
[7]
  GI50: 4.45 µM
  TGI: > 100 µM
[8]
  GI50: 3.75 µM
  TGI: > 100 µM
[9]
  GI50: 2.48 µM
  TGI: 7.87 µM
[10]
  GI50: 1.91 µM
  TGI: 5.2 µM
[11]
  GI50: 2.08 µM
  TGI: 5.41 µM
[12]
  GI50: 1.82 µM
  TGI: 4.17 µM
[13]
  GI50: 3.24 µM
  TGI: 9.52 µM
[14]
  GI50: 2.34 µM
  TGI: 10.4 µM
[15]
  GI50: 2.77 µM
  TGI: 12.8 µM
[16]
  GI50: 1.58 µM
  TGI: 4.19 µM
[17]
  GI50: 1.59 µM
  TGI: 3.43 µM
[18]
  GI50: 2.3 µM
  TGI: > 100 µM
[19]
  GI50: 1.41 µM
  TGI: 3.51 µM
[20]
  GI50: 1.09 µM
  TGI: 2.43 µM
[21]
  GI50: 2.51 µM
  TGI: 7.41 µM
[22]
  GI50: 2.84 µM
  TGI: 8.73 µM
[23]
  GI50: 3.73 µM
  TGI: > 100 µM
[24]
  GI50: 1.33 µM
  TGI: 3.05 µM
[25]
  GI50: 0.772 µM
  TGI: 6.48 µM
[26]
  GI50: 2 µM
  TGI: 3.71 µM
[27]
  GI50: 2.65 µM
  TGI: > 100 µM
[28]
  GI50: 1.63 µM
  TGI: 3.46 µM
[29]
  GI50: 1.59 µM
  TGI: 7.8 µM
[30]
  GI50: 3.26 µM
  TGI: 12.9 µM
[31]
  GI50: 0.422 µM
  TGI: 2.01 µM
[32]
  GI50: 2.32 µM
  TGI: 6.85 µM
[33]
  GI50: 3.92 µM
  TGI: > 100 µM
[34]
  GI50: 2.62 µM
  TGI: 7.55 µM
[35]
  GI50: 2.51 µM
  TGI: > 100 µM
[36]
  GI50: 1.87 µM
  TGI: 6.31 µM
[37]
  GI50: 1.81 µM
  TGI: 5.76 µM
[38]
  GI50: 2.26 µM
  TGI: 6.33 µM
[39]
  GI50: 1.83 µM
  TGI: 6.56 µM
[40]
  GI50: 1.97 µM
  TGI: 7.11 µM
[41]
  GI50: 1.41 µM
  TGI: 3.14 µM
[42]
  GI50: 2.04 µM
  TGI: 6.08 µM
[43]
  GI50: 0.983 µM
  TGI: 2.46 µM
[44]
  GI50: 3.42 µM
  TGI: > 100 µM
[45]
  GI50: 1.38 µM
  TGI: 3.89 µM
[46]
  GI50: > 100 µM
  TGI: > 100 µM
[47]
  GI50: 1.5 µM
  TGI: 3.67 µM
[48]
  GI50: 2.45 µM
  TGI: 7.39 µM
[49]
  GI50: 1.66 µM
  TGI: 3.84 µM
[50]
  GI50: 2.68 µM
  TGI: 19.8 µM
[51]
  GI50: 1.28 µM
  TGI: 3.32 µM
[52]
  GI50: 4.06 µM
  TGI: > 100 µM
[53]
  GI50: 2.53 µM
  TGI: 13.5 µM
[54]
  GI50: 2.11 µM
  TGI: 6.57 µM
[55]
  GI50: 1.77 µM
  TGI: 3.47 µM
